Experimental data reported in US9114086B2, “Coated tablets of eszopiclone” (Sunovion Pharmaceuticals Inc., priority 2009, dated 2015).

How the values were obtained:
[1] = Instantaneous dissolution of coated tablets in 5% human saliva solution, LC/MS/MS; type: physicochemical
Excerpt: A typical procedure for preparing the instantaneous dissolution solutions of coated tablets is described as follows: a tablet comprising a core and a film coating—in this case a coated eszopiclone tablet—is randomly selected, and then placed into a basket sinker (e.g., Hanson Research Part # ENMISC, BSK008-JP 8 mesh, 0.76″ L×0.41″ W) with long handle (made from stainless steel tubing). The basket is then immersed in dissolution diluent (e.g., 5% human saliva solution) in vial 1 for 2-5 seconds, then moved to vial 2 for 2-5 seconds dipping and so on with the same tablet. The dissolution diluents (e.g., 5% human saliva solution in water) can be prepared by mixing thoroughly about 50 mL of normal human saliva and about 950 mL of water in a suitable container. About 5 mL of the 5% human saliva solution is then pipetted into several scintillation vials (approximately 20 mL volume). This procedure has been employed with tablets coated with about 2-4% coating by weight
Alternatively, the dipping experiment described above may be carried out by immersing the tablet in the basket in dissolution diluents (e.g., about 5% human saliva solution in water) in vial 1, moving the basket up and down for about 2-5 seconds at a speed of approximate 1 dip every two seconds; remove the basket from the diluent; take a sample of the diluent; re-immerse the tablet in the same vial. Continue the experiment similarly to collect samples until the tablet disintegrates or the preselected time course is completed, whichever comes first. In this embodiment, a new tablet is used in each vial. The experiment is repeated as described for additional nine or ten tablets (total of 10 tablets). The concentration of active ingredient, e.g., eszopiclone, in the sample solutions is then determined using LC/MS/MS (ESI mode, positive MRM scan type). The dissolution instantaneous profile of the tablets is constructed by plotting logarithmic concentration of eszopiclone versus time in seconds.
Another typical procedure for preparing the instantaneous dissolution solutions of coated tablets is described as follows: a number of tablets comprising a core and a film coating—in this case coated eszopiclone tablets—are transferred into basket sinkers and into a series of vials containing the dissolution diluents. The basket is then immersed in dissolution diluents (e.g., 5% human saliva solution in water) in vial 1 for 5 seconds, in vial 2 for 10 seconds, in vial 3 for 15 seconds dipping and so on with the series of tablets. The dissolution diluents (e.g., 5% human saliva solution in water) can be prepared by mixing thoroughly 50 mL of normal human saliva and 950 mL of water in a suitable container. About 5 mL of the 5% human saliva solution is then pipetted into several scintillation vials (approximately 20 mL volume). This procedure has been employed with tablets coated with 3-8% coating by weight.
In each scenario above, the concentration of core material, e.g., eszopiclone, the active ingredient in the sample solutions, is determined using LC/MS/MS (ESI mode, positive MRM scan type). The dissolution instantaneous profile of the tablets is constructed by plotting logarithmic concentration of eszopiclone versus time in seconds.
Described herein are instantaneous dissolution methods comprising a step using a LC/MS/MS technique to measure the concentration of the active ingredient in the instantaneous dissolution solution. Specifically, the LC/MS/MS procedure includes: centrifuge samples from above instantaneous dissolution solution at 6000×g for 5 minutes (if sample appears cloudy) to obtain clear solution; take out supernatant or clear solution and load into HPLC auto samplers. […]

[2] = Sample solution stability (short term), HPLC-MS/MS method validation; type: physicochemical; conditions: stored at room temperature
Protocol: Described herein are instantaneous dissolution methods comprising a step using a LC/MS/MS technique to measure the concentration of the active ingredient in the instantaneous dissolution solution. Specifically, the LC/MS/MS procedure includes: centrifuge samples from above instantaneous dissolution solution at 6000×g for 5 minutes (if sample appears cloudy) to obtain clear solution; take out supernatant or clear solution and load into HPLC auto samplers. If the concentration of the active ingredient is above the upper calibration range (100 ng/mL), the sample solution will go through further dilution, for instance, by pipetting 100 μL of the centrifuged sample solution into 4.9 mL of sample diluents; If dilution sample is still above the calibration range, a serial dilution can be made with the dilution solution containing Internal Standard. Final diluted sample concentration should fall into the calibration range.
A summary of the HPLC-MS/MS method validation results can be found in the table below: […]

Question: Which results are given for CN1CCN(C(=O)O[C@H]2c3nccnc3C(=O)N2c2ccc(Cl)cn2)CC1 [Eszopiclone, (S)-(6-(5-chloro-2-pyridyl)-5-[(4-methyl-1-piperazinyl)carbonyloxy]-7-oxo-6,7-dihydro-5H-pyrrolo[3,4-b]pyrazine)]?
Answer: Mean, % dissolved results ([1]; Time 5 seconds): 5.317%; Mean, % dissolved results ([1]; Time 10 seconds): 6.875%; Mean, % dissolved results ([1]; Time 15 seconds): 7.461%; Mean, % dissolved results ([1]; Time 20 seconds): 14.144%; Mean, % dissolved results ([1]; Time 25 seconds): 12.222%; Mean, % dissolved results ([1]; Time 30 seconds): 16.625%; Mean, % dissolved results ([1]; Time 35 seconds): 22.404%; Mean, % dissolved results ([1]; Time 40 seconds): 14.658%; Mean, % dissolved results ([1]; Time 45 seconds): 14.989%; Mean, % dissolved results ([1]; Time 50 seconds): 12.477%; Sample solution stability (short term) [2]: Sample solutions are stable for 8 hours
